Measurements taken from the supplement of paper PMC8967900.

Columns and labels:
Test in all cases: selective drug sensitivity score (sDSS, relative to normal bone marrow) (sDSS (score)); higher = more potent and effective on the cell line relative to normal bone marrow cells
Conditions in all cases: 72 h
MN-60 = test system: MN-60
KOPN-8 = test system: KOPN-8
COG-LL-319h = test system: COG-LL-319h
ALL-SIL = test system: ALL-SIL
P12-ICHIKAWA = test system: P12-ICHIKAWA
KASUMI-2 = test system: KASUMI-2
RCH-ACV = test system: RCH-ACV
PEER = test system: PEER
PF-382 = test system: PF-382
NALM-16 = test system: NALM-16
MOLT-16 = test system: MOLT-16
SEM cells = test system: SEM cells
REH = test system: REH
NALM-6 = test system: NALM-6
CCRF-CEM = test system: CCRF-CEM
CCRF-HSB2 = test system: CCRF-HSB2
ALL-PO = test system: ALL-PO
P30-OHKUBO = test system: P30-OHKUBO
380 = test system: 380
MHH-CALL-3 = test system: MHH-CALL-3
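Also: ALL cell lines in 384-well plates, five doses spanning 10,000-fold, each plate scaled between vehicle and 100 µmol/L benzalkonium chloride controls, sDSS an adapted area-under-curve metric.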

SMILES | selective drug sensitivity score (MN-60) | selective drug sensitivity score (KOPN-8) | selective drug sensitivity score (COG-LL-319h) | selective drug sensitivity score (ALL-SIL) | selective drug sensitivity score (P12-ICHIKAWA) | selective drug sensitivity score (KASUMI-2) | selective drug sensitivity score (RCH-ACV) | selective drug sensitivity score (PEER) | selective drug sensitivity score (PF-382) | selective drug sensitivity score (NALM-16) | selective drug sensitivity score (MOLT-16) | selective drug sensitivity score (SEM cells) | selective drug sensitivity score (REH) | selective drug sensitivity score (NALM-6) | selective drug sensitivity score (CCRF-CEM) | selective drug sensitivity score (CCRF-HSB2) | selective drug sensitivity score (ALL-PO) | selective drug sensitivity score (P30-OHKUBO) | selective drug sensitivity score 380 | selective drug sensitivity score (MHH-CALL-3)
CC[C@@H](C(=O)[C@@H](C)[C@@H](O)[C@H](C)[C@@H]1O[C@@H]([C@@H](CC)C(=O)O)CC[C@@H]1C)[C@H]1O[C@]2(C=C[C@@H](O)[C@]3(CC[C@@](C)([C@H]4CC[C@](O)(CC)[C@H](C)O4)O3)O2)[C@H](C)C[C@@H]1C [Salinomycin] (top concentration 50000 nM) | 0.3 | -8.4 | -0.8 | 0.6 | -2 | -23.2 | -15.4 | 10.5 | -5.4 | 0.3 | 10.7 | -5.8 | -13 | -4.9 | 2 | 0.9 | -13.2 | -7.8 | 2.6 | -3.3
CNC(=O)CN1CCC(Oc2cc3c(Nc4cccc(Cl)c4F)ncnc3cc2OC)CC1 [Sapitinib] (top concentration 1000 nM) | 0 | 0 | 0 | 0 | 0 | 0 | 0 | 0 | 0 | 0 | 0 | 0 | 0 | 0 | 0 | 3.3 | 0 | 0 | 0 | 0.1
O[C@H]1CC[C@H](Nc2ncc3nc(Nc4c(F)cc(F)cc4F)n([C@H]4CCOC4)c3n2)CC1 [Tanzisertib] (top concentration 10000 nM) | 0 | 1.4 | 0 | 0 | 0 | 0 | 0 | 0 | 0 | 1.2 | 0 | 0 | 0 | 0 | 0 | 0.2 | 1.9 | 0 | 0 | 0
CO[C@H]1C[C@@H]2CC[C@@H](C)[C@@](O)(O2)C(=O)C(=O)N2CCCC[C@H]2C(=O)O[C@H]([C@H](C)C[C@@H]2CC[C@@H](OC(=O)C(C)(CO)CO)[C@H](OC)C2)CC(=O)[C@H](C)/C=C(\C)[C@@H](O)[C@@H](OC)C(=O)[C@H](C)C[C@H](C)/C=C/C=C/C=C/1C [Temsirolimus] (top concentration 100 nM) | 2.46 | 21.9 | 4.66 | 2.76 | -1.44 | 6.46 | 20.8 | 7.16 | 7.46 | 0.16 | 11.7 | 1.36 | 3.96 | -2.34 | 7.76 | 7.76 | 2.56 | 6.36 | 25.5 | 7.36
COc1cc([C@@H]2c3cc4c(cc3[C@@H](O[C@@H]3O[C@@H]5CO[C@@H](c6cccs6)O[C@H]5[C@H](O)[C@H]3O)[C@H]3COC(=O)[C@H]23)OCO4)cc(OC)c1O [Teniposide] (top concentration 10000 nM) | 0 | 0 | 0 | 0 | 0 | 2.4 | 0 | 0 | 0 | 0 | 0 | 0 | 0 | 0 | 0 | 0 | 0 | 0 | 0 | 0
Oc1nc(-c2ccc(C(F)(F)F)cc2)nc2c1CSCC2 [XAV939] (top concentration 10000 nM) | -0.14 | 0.66 | -0.14 | -0.14 | -0.14 | 1.46 | 0.06 | 0.96 | -0.14 | -0.14 | -0.14 | 0.56 | -0.04 | -0.14 | -0.14 | 0.36 | 0.06 | -0.14 | 1.96 | -0.14
